# Measured values published in patent US8192962B2, “Processes for detecting toxic substances” (Daikin Industries, Ltd., priority 2001, dated 2012).
# Test system: Energy system protein genes
# Experiment: DNA chip mRNA expression in yeast, energy system protein genes (Table 4)
# Assay type: cell-based, Saccharomyces cerevisiae S288C
# Summary of the method: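 Untreated cultures served as reference for log-phase S288C yeast given a growth-inhibiting, non-lethal toxicant dose for 2 h at 25° C. in YPD. Gene expression was measured on a whole-genome DNA chip from Cy3/Cy5-labeled cDNA.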
substance,measurement,setting,value
manganese ethylenebis(dithiocarbamate) [(8)],The level of expressed mRNA in the presence of chemical substance/The level of expressed mRNA in the absence of chemical substance,yeast gene YJR048W,0.9
same,The level of expressed mRNA in the presence of chemical substance/The level of expressed mRNA in the absence of chemical substance,"yeast gene YJR121W, cells incubated two hours with the chemical substance",0.7
same,The level of expressed mRNA in the presence of chemical substance/The level of expressed mRNA in the absence of chemical substance,yeast gene YJR155W,10.6
same,The level of expressed mRNA in the presence of chemical substance/The level of expressed mRNA in the absence of chemical substance,"yeast gene YKL016C, cells incubated two hours with the chemical substance",1.6
same,The level of expressed mRNA in the presence of chemical substance/The level of expressed mRNA in the absence of chemical substance,"yeast gene YKL060C, cells incubated two hours with the chemical substance",1.1
same,The level of expressed mRNA in the presence of chemical substance/The level of expressed mRNA in the absence of chemical substance,"yeast gene YKL141W, cells incubated two hours with the chemical substance",0.8
same,The level of expressed mRNA in the presence of chemical substance/The level of expressed mRNA in the absence of chemical substance,"yeast gene YKL148C, cells incubated two hours with the chemical substance",0.8
same,The level of expressed mRNA in the presence of chemical substance/The level of expressed mRNA in the absence of chemical substance,"yeast gene YKR009C, cells incubated two hours with the chemical substance",0.9
same,The level of expressed mRNA in the presence of chemical substance/The level of expressed mRNA in the absence of chemical substance,"yeast gene YKR058W, cells incubated two hours with the chemical substance, 25° C., YPD medium",1.5
same,The level of expressed mRNA in the presence of chemical substance/The level of expressed mRNA in the absence of chemical substance,yeast gene YKR097W,2.5
same,The level of expressed mRNA in the presence of chemical substance/The level of expressed mRNA in the absence of chemical substance,"yeast gene YLL041C, cells incubated two hours with the chemical substance",0.8
same,The level of expressed mRNA in the presence of chemical substance/The level of expressed mRNA in the absence of chemical substance,"yeast gene YLR038C, cells incubated two hours with the chemical substance",1.4
same,The level of expressed mRNA in the presence of chemical substance/The level of expressed mRNA in the absence of chemical substance,"yeast gene YLR044C, cells incubated two hours with the chemical substance",0.7
same,The level of expressed mRNA in the presence of chemical substance/The level of expressed mRNA in the absence of chemical substance,"yeast gene YLR134W, cells incubated two hours with the chemical substance",0.8
same,The level of expressed mRNA in the presence of chemical substance/The level of expressed mRNA in the absence of chemical substance,"yeast gene YLR258W, cells incubated two hours with the chemical substance",0.9
same,The level of expressed mRNA in the presence of chemical substance/The level of expressed mRNA in the absence of chemical substance,"yeast gene YLR284C, cells incubated two hours with the chemical substance",1.2
same,The level of expressed mRNA in the presence of chemical substance/The level of expressed mRNA in the absence of chemical substance,"yeast gene YLR295C, cells incubated two hours with the chemical substance, 25° C., YPD medium",1.2
same,The level of expressed mRNA in the presence of chemical substance/The level of expressed mRNA in the absence of chemical substance,"yeast gene YLR304C, cells incubated two hours with the chemical substance",0.6
same,The level of expressed mRNA in the presence of chemical substance/The level of expressed mRNA in the absence of chemical substance,yeast gene YLR345W,1.4
same,The level of expressed mRNA in the presence of chemical substance/The level of expressed mRNA in the absence of chemical substance,"yeast gene YLR354C, cells incubated two hours with the chemical substance",1.4
same,The level of expressed mRNA in the presence of chemical substance/The level of expressed mRNA in the absence of chemical substance,"yeast gene YLR377C, cells incubated two hours with the chemical substance",0.7
same,The level of expressed mRNA in the presence of chemical substance/The level of expressed mRNA in the absence of chemical substance,"yeast gene YLR395C, cells incubated two hours with the chemical substance",1.0
same,The level of expressed mRNA in the presence of chemical substance/The level of expressed mRNA in the absence of chemical substance,yeast gene YML087C,1.3
same,The level of expressed mRNA in the presence of chemical substance/The level of expressed mRNA in the absence of chemical substance,"yeast gene YML120C, cells incubated two hours with the chemical substance",0.9
same,The level of expressed mRNA in the presence of chemical substance/The level of expressed mRNA in the absence of chemical substance,"yeast gene YML129C, cells incubated two hours with the chemical substance",1.2
same,The level of expressed mRNA in the presence of chemical substance/The level of expressed mRNA in the absence of chemical substance,"yeast gene YMR073C, cells incubated two hours with the chemical substance",1.1
same,The level of expressed mRNA in the presence of chemical substance/The level of expressed mRNA in the absence of chemical substance,yeast gene YMR118C,1.0
same,The level of expressed mRNA in the presence of chemical substance/The level of expressed mRNA in the absence of chemical substance,"yeast gene YMR205C, cells incubated two hours with the chemical substance",0.7
same,The level of expressed mRNA in the presence of chemical substance/The level of expressed mRNA in the absence of chemical substance,"yeast gene YMR261C, cells incubated two hours with the chemical substance",0.7
same,The level of expressed mRNA in the presence of chemical substance/The level of expressed mRNA in the absence of chemical substance,"yeast gene YMR267W, cells incubated two hours with the chemical substance, 25° C., YPD medium",1.5
same,The level of expressed mRNA in the presence of chemical substance/The level of expressed mRNA in the absence of chemical substance,"yeast gene YMR323W, cells incubated two hours with the chemical substance",0.8
same,The level of expressed mRNA in the presence of chemical substance/The level of expressed mRNA in the absence of chemical substance,yeast gene YNL071W,0.9
same,The level of expressed mRNA in the presence of chemical substance/The level of expressed mRNA in the absence of chemical substance,"yeast gene YNL202W, cells incubated two hours with the chemical substance",1.2
same,The level of expressed mRNA in the presence of chemical substance/The level of expressed mRNA in the absence of chemical substance,yeast gene YNL241C,0.9
same,The level of expressed mRNA in the presence of chemical substance/The level of expressed mRNA in the absence of chemical substance,yeast gene YNL331C,13.1
same,The level of expressed mRNA in the presence of chemical substance/The level of expressed mRNA in the absence of chemical substance,"yeast gene YOL086C, cells incubated two hours with the chemical substance",0.8
same,The level of expressed mRNA in the presence of chemical substance/The level of expressed mRNA in the absence of chemical substance,yeast gene YOL165C,17.8
same,The level of expressed mRNA in the presence of chemical substance/The level of expressed mRNA in the absence of chemical substance,"yeast gene YOR142W, cells incubated two hours with the chemical substance",0.8
same,The level of expressed mRNA in the presence of chemical substance/The level of expressed mRNA in the absence of chemical substance,"yeast gene YOR178C, cells incubated two hours with the chemical substance",0.9
same,The level of expressed mRNA in the presence of chemical substance/The level of expressed mRNA in the absence of chemical substance,"yeast gene YOR388C, cells incubated two hours with the chemical substance",0.7
same,The level of expressed mRNA in the presence of chemical substance/The level of expressed mRNA in the absence of chemical substance,"yeast gene YPL031C, cells incubated two hours with the chemical substance",1.0
same,The level of expressed mRNA in the presence of chemical substance/The level of expressed mRNA in the absence of chemical substance,"yeast gene YPL061W, cells incubated two hours with the chemical substance",0.8
same,The level of expressed mRNA in the presence of chemical substance/The level of expressed mRNA in the absence of chemical substance,yeast gene YPL088W,1.9
same,The level of expressed mRNA in the presence of chemical substance/The level of expressed mRNA in the absence of chemical substance,yeast gene YPL171C,20.5
same,The level of expressed mRNA in the presence of chemical substance/The level of expressed mRNA in the absence of chemical substance,yeast gene YPL240C,1.2
same,The level of expressed mRNA in the presence of chemical substance/The level of expressed mRNA in the absence of chemical substance,"yeast gene YPL262W, cells incubated two hours with the chemical substance",1.0
same,The level of expressed mRNA in the presence of chemical substance/The level of expressed mRNA in the absence of chemical substance,"yeast gene YPL275W, cells incubated two hours with the chemical substance",1.0
same,The level of expressed mRNA in the presence of chemical substance/The level of expressed mRNA in the absence of chemical substance,"yeast gene YPL276W, cells incubated two hours with the chemical substance",0.9
same,The level of expressed mRNA in the presence of chemical substance/The level of expressed mRNA in the absence of chemical substance,"yeast gene YPR048W, cells incubated two hours with the chemical substance",1.5
same,The level of expressed mRNA in the presence of chemical substance/The level of expressed mRNA in the absence of chemical substance,"yeast gene YPR184W, cells incubated two hours with the chemical substance",0.7
